How the values were obtained:
Assay in all cases: Test B pre-/postemergence plant response
Format in all cases: in vivo
[1] = test system: goosegrass (Eleusine indica); conditions: for Goosegrass plant response rating: 8 g ai/ha
Outline: (§1)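 Visual scoring from 0 (no effect) to 100 (complete control) against untreated controls was done 13 to 15 days after greenhouse treatment. Chemicals were formulated in a surfactant-containing non-phytotoxic solvent and applied to soil preemergence or to 1- to 4-leaf (2-18 cm) plants postemergence.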

[2] = test system: blackgrass (Alopecurus myosuroides); conditions: for Blackgrass plant response rating: 8 g ai/ha
Outline: as §1

[3] = test system: morningglory (Ipomoea coccinea); conditions: for Morningglory plant response rating: 8 g ai/ha
Outline: as §1

[4] = test system: large crabgrass (Digitaria sanguinalis); conditions: for Crabgrass, Large plant response rating: 8 g ai/ha
Outline: as §1

[5] = test system: eastern black (E.B.) nightshade (Solanum ptycanthum); conditions: Preemergence
Outline: as §1

[6] = test system: surinam grass (Brachiaria decumbens); conditions: for Surinam Grass plant response rating: 8 g ai/ha
Outline: as §1

[7] = test system: common ragweed (Ambrosia elation); conditions: for Ragweed plant response rating: 8 g ai/ha
Outline: as §1

[8] = test system: wheat (Triticum aestivum); conditions: for Wheat plant response rating: 8 g ai/ha
Outline: as §1

[9] = test system: green foxtail (Setaria viridis); conditions: for Foxtail, Green plant response rating: 8 g ai/ha
Outline: as §1

wild oat (Avena fatua) = conditions: for Oat, Wild plant response rating: 8 g ai/ha
Outline: as §1

[10] = test system: lambsquarters (Chenopodium album); conditions: for Lambsquarters plant response rating: 8 g ai/ha
Outline: as §1

[11] = test system: common (oilseed) sunflower (Helianthus annuus); conditions: Preemergence
Outline: as §1

kochia (Kochia scoparia) = conditions: for Kochia plant response rating: 8 g ai/ha
Outline: as §1

soybean (Glycine max) = conditions: for Soybean plant response rating: 8 g ai/ha
Outline: as §1

[12] = Postemergence, 16 g ai/ha, scale 0 to 100
[13] = Postemergence, 31 g ai/ha, scale 0 to 100, 0 no effect, 100 complete control
[14] = Postemergence, 62 g ai/ha, scale 0 to 100, 0 no effect, 100 complete control
[15] = Preemergence, 16 g ai/ha, scale 0 to 100 (0 no effect, 100 complete control)
[16] = Preemergence, 31 g ai/ha, 0 to 100 scale, 0 no effect, 100 complete control
[17] = Preemergence, 62 g ai/ha, scale 0 to 100
[18] = Preemergence, 31 g ai/ha, scale 0 to 100 (0 no effect, 100 complete control)
[19] = 16 g ai/ha, scale 0 to 100 (0 no effect, 100 complete control)
[20] = 31 g ai/ha, scale 0 to 100 (0 no effect, 100 complete control)
[21] = Preemergence, 62 g ai/ha, 0 to 100 scale, 0 no effect, 100 complete control

With CCCc1cc(-c2ccc(Cl)cc2)nn1-c1c(O)cnn(C)c1=O [Compound 43] the “Goosegrass plant response rating” value ([1]; postemergence, 0-100 scale) was 60, the “Plant response rating, Goosegrass” value [1, 12] was 70 and the “Plant response rating, Goosegrass” value [1, 13] was 75. The “Plant response rating, Goosegrass” value [1, 14] was 85, the “Plant response rating, Goosegrass” value [1, 15] was 75 and the “Plant response rating, Goosegrass” value [1, 16] was 98. For the same compound, the “Plant response rating, Goosegrass” value [1, 17] was 100, the “Goosegrass plant response rating” value ([1]; Preemergence, scale 0 to 100) was 65 and the “Blackgrass plant response rating” value ([2]; postemergence, 0-100 scale) was 85. For the same compound, the “Plant response rating, Blackgrass” value [2, 12] was 85, the “Plant response rating, Blackgrass” value [2, 13] was 95 and the “Plant response rating, Blackgrass” value [2, 14] was 100. For the same compound, the “Plant response rating, Blackgrass” value [2, 15] was 95, the “Plant response rating, Blackgrass” value [2, 16] was 100 and the “Plant response rating, Blackgrass” value [2, 17] was 100. The “Blackgrass plant response rating” value ([2]; Preemergence, scale 0 to 100) was 70, the “Morningglory plant response rating” value ([3]; postemergence, 0-100 scale) was 0 and the “Plant response rating, Morningglory” value [3, 12] was 0. The “Plant response rating, Morningglory” value [3, 13] was 0, the “Plant response rating, Morningglory” value [3, 14] was 0 and the “Plant response rating, Morningglory” value [3, 15] was 0. For the same compound, the “Plant response rating, Morningglory” value [3, 18] was 0, the “Plant response rating, Morningglory” value [3, 17] was 0 and the “Morningglory plant response rating” value ([3]; Preemergence, scale 0 to 100) was 0. For the same compound, the “Crabgrass, Large plant response rating” value ([4]; postemergence, 0-100 scale) was 65, the “Plant response rating, Crabgrass, Large” value [4, 12] was 70 and the “Plant response rating, Crabgrass, Large” value [4, 13] was 75. The “Plant response rating, Crabgrass, Large” value [4, 14] was 85, the “Plant response rating, Crabgrass, Large” value [4, 15] was 65 and the “Plant response rating, Crabgrass, Large” value [4, 16] was 98. For the same compound, the “Plant response rating, Crabgrass, Large” value [4, 17] was 100, the “Crabgrass, Large plant response rating” value ([4]; Preemergence, scale 0 to 100) was 15 and the “Plant response rating, Nightshade, E. B.” value [5, 19] was 0. For the same compound, the “Plant response rating, Nightshade, E. B.” value [5, 20] was 0, the “Plant response rating, Nightshade, E. B.” value ([5]; 62 g ai/ha, scale 0 to 100) was 0 and the “Nightshade, E. B. plant response rating” value ([5]; 8 g ai/ha, scale 0 to 100) was 0. The “Surinam Grass plant response rating” value ([6]; postemergence, 0-100 scale) was 65, the “Plant response rating, Surinam Grass” value [6, 12] was 95 and the “Plant response rating, Surinam Grass” value [6, 14] was 100. The “Plant response rating, Surinam Grass” value [6, 15] was 90, the “Plant response rating, Surinam Grass” value [6, 18] was 100 and the “Plant response rating, Surinam Grass” value [6, 21] was 100. The “Surinam Grass plant response rating” value ([6]; Preemergence, scale 0 to 100) was 0, the “Ragweed plant response rating” value ([7]; postemergence, 0-100 scale) was 0 and the “Plant response rating, Ragweed” value [7, 12] was 0. The “Plant response rating, Ragweed” value [7, 13] was 0, the “Plant response rating, Ragweed” value [7, 14] was 0 and the “Plant response rating, Ragweed” value [7, 15] was 0. The “Plant response rating, Ragweed” value [7, 18] was 0, the “Plant response rating, Ragweed” value [7, 17] was 0 and the “Ragweed plant response rating” value ([7]; Preemergence, scale 0 to 100) was 0. The “Wheat plant response rating” value ([8]; postemergence, 0-100 scale) was 30, the “Plant response rating, Wheat” value [8, 12] was 70 and the “Plant response rating, Wheat” value [8, 14] was 100. The “Plant response rating, Wheat” value [8, 15] was 10, the “Plant response rating, Wheat” value [8, 18] was 15 and the “Plant response rating, Wheat” value [8, 21] was 80. The “Wheat plant response rating” value ([8]; Preemergence, scale 0 to 100) was 0, the “Foxtail, Green plant response rating” value ([9]; postemergence, 0-100 scale) was 60 and the “Plant response rating, Foxtail, Green” value [9, 12] was 75. The “Plant response rating, Foxtail, Green” value [9, 13] was 100, the “Plant response rating, Foxtail, Green” value [9, 14] was 100 and the “Plant response rating, Foxtail, Green” value [9, 15] was 100. The “Plant response rating, Foxtail, Green” value [9, 16] was 100, the “Plant response rating, Foxtail, Green” value [9, 17] was 100 and the “Foxtail, Green plant response rating” value ([9]; Preemergence, scale 0 to 100) was 100. For the same compound, the “Oat, Wild plant response rating” value (wild oat (Avena fatua); postemergence, 0-100 scale) was 95, the “Plant response rating, Oat, Wild” value (wild oat (Avena fatua); [12]) was 100 and the “Plant response rating, Oat, Wild” value (wild oat (Avena fatua); [13]) was 100. For the same compound, the “Plant response rating, Oat, Wild” value (wild oat (Avena fatua); [14]) was 100, the “Plant response rating, Oat, Wild” value (wild oat (Avena fatua); [15]) was 90 and the “Plant response rating, Oat, Wild” value (wild oat (Avena fatua); [18]) was 95. The “Plant response rating, Oat, Wild” value (wild oat (Avena fatua); [17]) was 95, the “Oat, Wild plant response rating” value (wild oat (Avena fatua); Preemergence, scale 0 to 100) was 70 and the “Lambsquarters plant response rating” value ([10]; postemergence, 0-100 scale) was 0. The “Plant response rating, Lambsquarters” value [10, 12] was 0, the “Plant response rating, Lambsquarters” value [10, 13] was 0 and the “Plant response rating, Lambsquarters” value [10, 14] was 0. For the same compound, the “Plant response rating, Lambsquarters” value [10, 15] was 0, the “Plant response rating, Lambsquarters” value [10, 16] was 0 and the “Plant response rating, Lambsquarters” value [10, 17] was 0. For the same compound, the “Lambsquarters plant response rating” value ([10]; Preemergence, scale 0 to 100) was 0, the “Plant response rating, Sunflower” value [11, 19] was 0 and the “Plant response rating, Sunflower” value [11, 20] was 0. The “Plant response rating, Sunflower” value ([11]; 62 g ai/ha, scale 0 to 100) was 0, the “Sunflower plant response rating” value ([11]; 8 g ai/ha, scale 0 to 100) was 0 and the “Kochia plant response rating” value (kochia (Kochia scoparia); postemergence, 0-100 scale) was 0. The “Plant response rating, Kochia” value (kochia (Kochia scoparia); [12]) was 0, the “Plant response rating, Kochia” value (kochia (Kochia scoparia); [13]) was 0 and the “Plant response rating, Kochia” value (kochia (Kochia scoparia); [14]) was 0. The “Plant response rating, Kochia” value (kochia (Kochia scoparia); [15]) was 0, the “Plant response rating, Kochia” value (kochia (Kochia scoparia); [16]) was 0 and the “Plant response rating, Kochia” value (kochia (Kochia scoparia); [17]) was 0. The “Kochia plant response rating” value (kochia (Kochia scoparia); Preemergence, scale 0 to 100) was 0, the “Soybean plant response rating” value (soybean (Glycine max); postemergence, 0-100 scale) was 0 and the “Plant response rating, Soybean” value (soybean (Glycine max); [12]) was 0. For the same compound, the “Plant response rating, Soybean” value (soybean (Glycine max); [14]) was 0, the “Plant response rating, Soybean” value (soybean (Glycine max); [15]) was 0 and the “Plant response rating, Soybean” value (soybean (Glycine max); [18]) was 0. For the same compound, the “Plant response rating, Soybean” value (soybean (Glycine max); [17]) was 0 and the “Soybean plant response rating” value (soybean (Glycine max); Preemergence, scale 0 to 100) was 0.
